Measurements published in the NIST ThermoML archive (doi:10.1021/je0340809).
Numbers after ± are expanded uncertainties.

Experiment: xn = mol fraction of the nth substance listed
Details: 101.3 kPa, Liquid

CN1CCCC1=O [N-methylpyrrolidone] + O
Details	mass density [kg/m3]	speed of sound [m/s]	viscosity [mPa·s]
298.15 K, x2 = 0.0522	1029.55 ± 0.69	1548.8 ± 6.4	1.721 ± 0.041
298.15 K, x2 = 0.1684	1032.9 ± 0.71	1561 ± 6.4	1.985 ± 0.046
298.15 K, x2 = 0.2465	1035.15 ± 0.72	1579.5 ± 6.5	2.147 ± 0.05
298.15 K, x2 = 0.3481	1038.13 ± 0.74	1616.8 ± 6.6	2.535 ± 0.059
298.15 K, x2 = 0.4534	1041.65 ± 0.76	1653.8 ± 6.7	3.346 ± 0.076
298.15 K, x2 = 0.5018	1043.41 ± 0.77	1667.7 ± 6.7	3.838 ± 0.087
298.15 K, x2 = 0.5493	1045.11 ± 0.78	1682 ± 6.8	4.338 ± 0.097
298.15 K, x2 = 0.6504	1047.71 ± 0.8	1711.3 ± 6.9	5.159 ± 0.11
298.15 K, x2 = 0.752	1046.06 ± 0.79	1738.2 ± 6.9	5.071 ± 0.11
298.15 K, x2 = 0.8536	1035.21 ± 0.72	1748.1 ± 7	3.65 ± 0.083
298.15 K, x2 = 0.8742	1031.43 ± 0.7	1738.4 ± 6.9	3.224 ± 0.073
298.15 K, x2 = 0.8849	1029.24 ± 0.68	1730.9 ± 6.9	2.992 ± 0.068
298.15 K, x2 = 0.8996	1025.97 ± 0.66	1716.8 ± 6.9	2.668 ± 0.061
298.15 K, x2 = 0.9257	1019.43 ± 0.62	1681.1 ± 6.8	2.093 ± 0.049
298.15 K, x2 = 0.9368	1016.38 ± 0.6	1661 ± 6.7	1.857 ± 0.044
298.15 K, x2 = 0.9557	1010.88 ± 0.57	1621.2 ± 6.6	1.487 ± 0.036
298.15 K, x2 = 0.9641	1008.33 ± 0.55	1600.8 ± 6.5	1.338 ± 0.032
298.15 K, x2 = 0.9754	1004.82 ± 0.53	1571.3 ± 6.4	1.16 ± 0.029
298.15 K, x2 = 0.99	1000.21 ± 0.5	1529.1 ± 6.3	0.978 ± 0.025
308.15 K, x2 = 0.0522	1020.49 ± 0.63	1521.3 ± 6.3	1.405 ± 0.034
308.15 K, x2 = 0.1684	1023.58 ± 0.65	1533.3 ± 6.3	1.588 ± 0.038
308.15 K, x2 = 0.2465	1025.1 ± 0.66	1549.9 ± 6.4	1.702 ± 0.04
308.15 K, x2 = 0.3481	1028.58 ± 0.68	1578.3 ± 6.5	1.979 ± 0.047
308.15 K, x2 = 0.4534	1032.02 ± 0.7	1610.1 ± 6.6	2.567 ± 0.06
308.15 K, x2 = 0.5018	1033.74 ± 0.71	1624.8 ± 6.6	2.925 ± 0.067
308.15 K, x2 = 0.5493	1035.39 ± 0.72	1639.5 ± 6.6	3.289 ± 0.075
308.15 K, x2 = 0.6504	1037.97 ± 0.74	1672 ± 6.7	3.885 ± 0.088
308.15 K, x2 = 0.752	1036.73 ± 0.73	1702.6 ± 6.8	3.814 ± 0.087
308.15 K, x2 = 0.8536	1027.32 ± 0.67	1707.3 ± 6.9	2.76 ± 0.064
308.15 K, x2 = 0.8742	1024.02 ± 0.65	1700.3 ± 6.8	2.446 ± 0.057
308.15 K, x2 = 0.8849	1022.1 ± 0.64	1694.9 ± 6.8	2.273 ± 0.053
308.15 K, x2 = 0.8996	1019.23 ± 0.62	1685.4 ± 6.8	2.034 ± 0.048
308.15 K, x2 = 0.9257	1013.52 ± 0.58	1661.1 ± 6.7	1.609 ± 0.039
308.15 K, x2 = 0.9368	1010.86 ± 0.57	1647.4 ± 6.7	1.435 ± 0.035
308.15 K, x2 = 0.9557	1006.06 ± 0.54	1618.8 ± 6.6	1.16 ± 0.029
308.15 K, x2 = 0.9641	1003.83 ± 0.52	1603.6 ± 6.5	1.051 ± 0.026
308.15 K, x2 = 0.9754	1000.77 ± 0.5	1580.6 ± 6.4	0.92 ± 0.023
308.15 K, x2 = 0.99	996.769 ± 0.52	1546.1 ± 6.3	0.785 ± 0.02
318.15 K, x2 = 0.0522	1011.19 ± 0.58	1480.9 ± 6.2	1.232 ± 0.03
318.15 K, x2 = 0.1684	1014.09 ± 0.59	1493 ± 6.2	1.35 ± 0.032
318.15 K, x2 = 0.2465	1016.08 ± 0.6	1508.9 ± 6.2	1.429 ± 0.034
318.15 K, x2 = 0.3481	1018.81 ± 0.62	1535.9 ± 6.3	1.613 ± 0.038
318.15 K, x2 = 0.4534	1022.08 ± 0.64	1566.5 ± 6.4	2.03 ± 0.048
318.15 K, x2 = 0.5018	1023.72 ± 0.65	1580.9 ± 6.5	2.287 ± 0.053
318.15 K, x2 = 0.5493	1025.31 ± 0.66	1595.4 ± 6.5	2.547 ± 0.059
318.15 K, x2 = 0.6504	1027.9 ± 0.68	1628.2 ± 6.6	2.973 ± 0.068
318.15 K, x2 = 0.752	1027.12 ± 0.67	1661.2 ± 6.7	2.905 ± 0.067
318.15 K, x2 = 0.8536	1019.09 ± 0.62	1674.5 ± 6.7	2.117 ± 0.05
318.15 K, x2 = 0.8742	1016.22 ± 0.6	1670.7 ± 6.7	1.882 ± 0.045
318.15 K, x2 = 0.8849	1014.55 ± 0.59	1667.3 ± 6.7	1.754 ± 0.042
318.15 K, x2 = 0.8996	1012.06 ± 0.57	1660.9 ± 6.7	1.576 ± 0.038
318.15 K, x2 = 0.9257	1007.08 ± 0.54	1643.6 ± 6.6	1.261 ± 0.031
318.15 K, x2 = 0.9368	1004.77 ± 0.53	1633.5 ± 6.6	1.13 ± 0.028
318.15 K, x2 = 0.9557	1000.59 ± 0.5	1611.9 ± 6.5	0.928 ± 0.023
318.15 K, x2 = 0.9641	998.66 ± 0.51	1600.4 ± 6.5	0.845 ± 0.022
318.15 K, x2 = 0.9754	996.013 ± 0.52	1582.7 ± 6.5	0.747 ± 0.019
318.15 K, x2 = 0.99	992.557 ± 0.55	1556.1 ± 6.4	0.645 ± 0.017
328.15 K, x2 = 0.0522	1002.19 ± 0.52	1451.9 ± 6.1	1.124 ± 0.027
328.15 K, x2 = 0.1684	1004.9 ± 0.54	1463.8 ± 6.1	1.194 ± 0.029
328.15 K, x2 = 0.2465	1006.77 ± 0.55	1478.8 ± 6.1	1.234 ± 0.03
328.15 K, x2 = 0.3481	1009.34 ± 0.56	1504.2 ± 6.2	1.357 ± 0.033
328.15 K, x2 = 0.4534	1012.42 ± 0.58	1533.2 ± 6.3	1.647 ± 0.039
328.15 K, x2 = 0.5018	1013.98 ± 0.59	1547.1 ± 6.4	1.827 ± 0.043
328.15 K, x2 = 0.5493	1015.5 ± 0.6	1561.1 ± 6.4	2.011 ± 0.047
328.15 K, x2 = 0.6504	1018.05 ± 0.61	1593.5 ± 6.5	2.308 ± 0.054
328.15 K, x2 = 0.752	1017.63 ± 0.61	1627.4 ± 6.6	2.241 ± 0.052
328.15 K, x2 = 0.8536	1010.77 ± 0.57	1646.4 ± 6.7	1.645 ± 0.039
328.15 K, x2 = 0.8742	1008.28 ± 0.55	1645 ± 6.7	1.47 ± 0.035
328.15 K, x2 = 0.8849	1006.83 ± 0.54	1643.2 ± 6.6	1.374 ± 0.033
328.15 K, x2 = 0.8996	1004.66 ± 0.53	1639.2 ± 6.6	1.24 ± 0.03
328.15 K, x2 = 0.9257	1000.32 ± 0.5	1627.2 ± 6.6	1.004 ± 0.025
328.15 K, x2 = 0.9368	998.296 ± 0.51	1619.9 ± 6.6	0.907 ± 0.023
328.15 K, x2 = 0.9557	994.66 ± 0.53	1603.9 ± 6.5	0.753 ± 0.02
328.15 K, x2 = 0.9641	992.982 ± 0.54	1595.2 ± 6.5	0.692 ± 0.018
328.15 K, x2 = 0.9754	990.687 ± 0.56	1581.7 ± 6.5	0.618 ± 0.017
328.15 K, x2 = 0.99	987.705 ± 0.58	1561.2 ± 6.4	0.541 ± 0.015
338.15 K, x2 = 0.0522	993.182 ± 0.55	1410.7 ± 5.9	0.987 ± 0.025
338.15 K, x2 = 0.1684	995.706 ± 0.53	1422.8 ± 6	1.026 ± 0.025
338.15 K, x2 = 0.2465	997.455 ± 0.52	1437.4 ± 6	1.048 ± 0.026
338.15 K, x2 = 0.3481	999.87 ± 0.51	1461.9 ± 6.1	1.129 ± 0.028
338.15 K, x2 = 0.4534	1002.78 ± 0.52	1490.2 ± 6.2	1.332 ± 0.032
338.15 K, x2 = 0.5018	1004.25 ± 0.53	1504 ± 6.2	1.46 ± 0.035
338.15 K, x2 = 0.5493	1005.71 ± 0.54	1518 ± 6.3	1.591 ± 0.038
338.15 K, x2 = 0.6504	1008.2 ± 0.56	1551 ± 6.4	1.799 ± 0.043
338.15 K, x2 = 0.752	1008.09 ± 0.55	1587.1 ± 6.5	1.74 ± 0.042
338.15 K, x2 = 0.8536	1002.25 ± 0.52	1613.3 ± 6.6	1.292 ± 0.032
338.15 K, x2 = 0.8742	1000.1 ± 0.5	1614.4 ± 6.6	1.161 ± 0.029
338.15 K, x2 = 0.8849	998.836 ± 0.51	1614.4 ± 6.6	1.089 ± 0.027
338.15 K, x2 = 0.8996	996.948 ± 0.52	1613 ± 6.6	0.99 ± 0.025
338.15 K, x2 = 0.9257	993.171 ± 0.54	1602.6 ± 6.5	0.813 ± 0.021
338.15 K, x2 = 0.9368	991.416 ± 0.55	1602.1 ± 6.5	0.74 ± 0.019
338.15 K, x2 = 0.9557	988.261 ± 0.57	1591.8 ± 6.5	0.627 ± 0.017
338.15 K, x2 = 0.9641	986.808 ± 0.58	1585.9 ± 6.5	0.58 ± 0.016
338.15 K, x2 = 0.9754	984.827 ± 0.59	1576.7 ± 6.4	0.524 ± 0.015
338.15 K, x2 = 0.99	982.266 ± 0.61	1562.4 ± 6.4	0.467 ± 0.013
